According to article PMC7722354, “7-Substituted 2-Nitro-5,6-dihydroimidazo[2,1-b][1,3]oxazines: Novel Antitubercular Agents Lead to a New Preclinical Candidate for Visceral Leishmaniasis” (Journal of Medicinal Chemistry, 2017):
In brackets after ≈: the same amount, converted by molar mass. Where two headings read alike, the source gives them in different places. Marks after values point to notes of the source that are not given here.

Legend:
Caco-2 = settings: cited from earlier work
Leishmania donovani [1] = tested on: Leishmania donovani; design: method as in PMID 26901446; settings: in mouse macrophages; cited from earlier work
[2] = tested on: human lung fibroblasts (MRC-5 cells); design: method as in PMID 26901446; settings: cytotoxicity; cited from earlier work
[3] = tested on: Salmonella strains (TA98 and TA100)
Description: Ames Test. […] Two Salmonella strains (TA98 and TA100) were employed, both in the presence and absence of metabolic activation (rat liver S9). Positive controls (2-aminoanthracene, 2-nitrofluorene, and sodium azide) and a negative (DMSO solvent) control were included.

Leishmania infantum = test: L. inf growth inhibition in mouse macrophages (LMPH); type: cell-based; settings: Macrophage, mean of at least two determinations
M. tb, strain H37Rv [4] = test: MABA minimum inhibitory concentration assay (aerobic); type: cell-based, Mycobacterium tuberculosis; settings: Mycobacterium tuberculosis, H37RV
[5] = tested on: human lung fibroblasts (MRC-5 cells); test: cytotoxicity toward MRC-5 cells (LMPH); type: cell-based; settings: MRC5
M. tb, strain H37Rv [6] = test: LORA minimum inhibitory concentration assay (hypoxic); type: cell-based; settings: Mycobacterium tuberculosis
mouse pharmacokinetics = type: in vivo; settings: mice, oral 40 mg/kg
L. donovani [7] = test: acute VL infection assay (L. don mouse model, LSHTM); settings: Leishmania donovani, po, 120 h; 50 mg/kg orally once daily 5 days; liver parasite burden; read-out: in vivo efficacy against L. don (mouse), % inhibition
Trypanosoma cruzi = test: T. cruzi growth inhibition on MRC-5 cells (LMPH); type: cell-based; settings: MRC5
[8] = kinetic aqueous solubility (Method A); type: physicochemical; settings: water, pH 7, kinetic
Leishmania donovani [9] = test: L. don amastigote mouse macrophage-based luciferase assay (CDRI); type: cell-based; settings: in mouse macrophages, single test (CDRI)
L. donovani [10] = settings: L. don hamster model, 50 mg/kg, 5 days oral dosing
Protocol: Groups of hamsters having an appropriate infection grading (5–15 amastigotes/100 spleen cell nuclei) were treated with test compounds, starting on day 17 and dosing orally once per day for 5 days, according to the usual procedure.[10] Post-treatment splenic biopsies taken 12 days after the first dose were employed to determine the intensity of infection, as previously reported.[10]

Structure (SMILES): C[C@]1(COc2ccc(OC(F)(F)F)cc2)Cn2cc([N+](=O)[O-])nc2O1 [compound 4]
- permeability Papp A to B (Caco-2): 22.6 × 10^–6 cm/s
- permeability Papp B to A (Caco-2): 24.7 × 10^–6 cm/s
- IC50 (Leishmania donovani [1]): 30 nM
- IC50 [2]: > 64000 nM
- mutagenic effect (Ames test) [3]: no
- logD (physchem): 3.1

Structure (SMILES): O=[N+]([O-])c1cn2c(n1)OC(COCc1ccc(-c3ccc(OC(F)(F)F)cc3)cc1)CC2 (centres unmarked) [compound 28]
- IC50 (Leishmania infantum): 400 nM
- MIC (M. tb, strain H37Rv [4]; aerobic, read-out: MIC MABA): 0.055 µM (≈ 0.0247 µg/mL)
- IC50 [5]: > 64000 nM
- MIC (M. tb, strain H37Rv [6]): 1.5 µM (≈ 0.674 µg/mL)
- AUCinf (extrapolated) (mouse pharmacokinetics): 47.1^e μ·h/mL
- Cmax (mouse pharmacokinetics): 3300 ng/mL
- Tmax (mouse pharmacokinetics): 8.0 h
- t1/2 (mouse pharmacokinetics): 5.2 h
- inhibition in vivo at 50 mg/kg (L. donovani [7]): 49%
- IC50 (Trypanosoma cruzi): 2100 nM
- solubility at 15 min ([8]; pH 7, read-out: solubility at pH 7): ~0.058 µg/mL (≈ 0.129 µM)
- solubility at 15 min ([8]; water (pH 7), 20 °C, read-out: aq solubility pH 7): 0.058 µg/mL (≈ 0.129 µM)
- IC50 (Leishmania donovani [9]): 190 nM

Structure (SMILES): O=[N+]([O-])c1cn2c(n1)OC(COc1ccc(-c3ccc(F)cc3)cc1)CC2 (centres unmarked) [compound 49]
- % inhibition of parasite infection in the spleen (L. donovani [10]): 51%
- MIC (M. tb, strain H37Rv [4]; read-out: MIC MABA, aerobic): 0.18 µM (≈ 0.0665 µg/mL)
- MIC (M. tb, strain H37Rv [6]): > 128 µM
- IC50 (Leishmania donovani [9]): 10 nM
